Assay results reported in ChEMBL document CHEMBL3885881, “DrugMatrix”.

Species: Rattus norvegicus
Assay: DrugMatrix - Regimen: Daily Repeat
Type: toxicity, organism-based, Sprague-Dawley
Parameters: regimen Daily Repeat, gender Male, age 6-8 weeks
Conditions: in vivo, po, 0 mg/kg, route oral GAVAGE, dose level Control, […]; for ABSOLUTE BASOPHIL / ABSOLUTE EOSINOPHIL / ABSOLUTE LYMPHOCYTE / ABSOLUTE MONOCYTE / ABSOLUTE SEGMENTED NEUTROPHIL / BASOPHIL / EOSINOPHIL / ERYTHROCYTE COUNT / HEMATOCRIT / HEMOGLOBIN / LEUKOCYTE COUNT / LYMPHOCYTE / MEAN CORPUSCULAR HEMOGLOBIN / MEAN CORPUSCULAR HEMOGLOBIN CONCENTRATION / MEAN CORPUSCULAR VOLUME / MONOCYTE / NEUTROPHIL / NUCLEATED RED BLOOD CELLS / PLATELET COUNT: tissue Blood; for ALANINE AMINOTRANSFERASE / ALKALINE PHOSPHATASE / ASPARTATE AMINOTRANSFERASE / BLOOD UREA NITROGEN / CARBON DIOXIDE / CHLORIDE / CHOLESTEROL / CREATINE PHOSPHOKINASE / CREATININE / GLUCOSE / LACTATE DEHYDROGENASE / LIPASE / PHOSPHORUS / POTASSIUM / SODIUM / TOTAL BILIRUBIN / TOTAL PROTEIN / URIC ACID: tissue Plasma

CC(=O)[C@H]1CC[C@H]2[C@@H]3CCC4=CC(=O)CC[C@]4(C)[C@H]3CC[C@]12C [PROGESTERONE]
ABSOLUTE BASOPHIL (72 h, time 3 day): 0 CELLS/uL | ABSOLUTE EOSINOPHIL (72 h, time 3 day): 41.83 CELLS/uL | ABSOLUTE LYMPHOCYTE (72 h, time 3 day): 8545.5 CELLS/uL | ABSOLUTE MONOCYTE (72 h, time 3 day): 240 CELLS/uL | ABSOLUTE SEGMENTED NEUTROPHIL (72 h, time 3 day): 906 CELLS/uL | BASOPHIL (72 h, time 3 day): 0% | EOSINOPHIL (72 h, time 3 day): 0.33% | ERYTHROCYTE COUNT (72 h, time 3 day): 5.6 x10E6/uL | HEMATOCRIT (72 h, time 3 day): 35.4% | HEMOGLOBIN (72 h, time 3 day): 13.42 G/DL | LEUKOCYTE COUNT (72 h, time 3 day): 9.73 x10E3/uL | LYMPHOCYTE (72 h, time 3 day): 87.83% | MEAN CORPUSCULAR HEMOGLOBIN (72 h, time 3 day): 23.98 pg | MEAN CORPUSCULAR HEMOGLOBIN CONCENTRATION (72 h, time 3 day): 37.92 G/DL | MEAN CORPUSCULAR VOLUME (72 h, time 3 day): 63.3 fL | MONOCYTE (72 h, time 3 day): 2.5% | NEUTROPHIL (72 h, time 3 day): 9.33% | NUCLEATED RED BLOOD CELLS (72 h, time 3 day): 0 /100WBC | PLATELET COUNT (72 h, time 3 day): 1032 x10E3/uL | ALANINE AMINOTRANSFERASE (72 h, time 3 day): 72.83 u/L | ALKALINE PHOSPHATASE (72 h, time 3 day): 322.83 u/L | ASPARTATE AMINOTRANSFERASE (72 h, time 3 day): 102.67 u/L | BLOOD UREA NITROGEN (72 h, time 3 day): 12 mg/dL | CARBON DIOXIDE (72 h, time 3 day): 34.33 mmol/L | CHLORIDE (72 h, time 3 day): 97.67 MEQ/L | CHOLESTEROL (72 h, time 3 day): 82.5 mg/dL | CREATINE PHOSPHOKINASE (72 h, time 3 day): 410.33 u/L | CREATININE (72 h, time 3 day): 0.18 mg/dL | GLUCOSE (72 h, time 3 day): 164.5 mg/dL | LACTATE DEHYDROGENASE (72 h, time 3 day): 119.5 u/L | LIPASE (72 h, time 3 day): 11.83 u/L | PHOSPHORUS (72 h, time 3 day): 9.52 mg/dL | POTASSIUM (72 h, time 3 day): 5.56 MEQ/L | SODIUM (72 h, time 3 day): 142.48 MEQ/L | TOTAL BILIRUBIN (72 h, time 3 day): 0.18 mg/dL | TOTAL PROTEIN (72 h, time 3 day): 5.77 G/DL | URIC ACID (72 h, time 3 day): 0.48 mg/dL | ABSOLUTE BASOPHIL (120 h, time 5 day): 0 CELLS/uL | ABSOLUTE EOSINOPHIL (120 h, time 5 day): 0 CELLS/uL | ABSOLUTE LYMPHOCYTE (120 h, time 5 day): 9065 CELLS/uL | ABSOLUTE MONOCYTE (120 h, time 5 day): 341.33 CELLS/uL | ABSOLUTE SEGMENTED NEUTROPHIL (120 h, time 5 day): 527 CELLS/uL | BASOPHIL (120 h, time 5 day): 0% | EOSINOPHIL (120 h, time 5 day): 0% | ERYTHROCYTE COUNT (120 h, time 5 day): 5.25 x10E6/uL | HEMATOCRIT (120 h, time 5 day): 34.08% | HEMOGLOBIN (120 h, time 5 day): 13.5 G/DL | LEUKOCYTE COUNT (120 h, time 5 day): 9.93 x10E3/uL | LYMPHOCYTE (120 h, time 5 day): 91.17% | MEAN CORPUSCULAR HEMOGLOBIN (120 h, time 5 day): 25.7 pg | MEAN CORPUSCULAR HEMOGLOBIN CONCENTRATION (120 h, time 5 day): 39.62 G/DL | MEAN CORPUSCULAR VOLUME (120 h, time 5 day): 64.93 fL | MONOCYTE (120 h, time 5 day): 3.33% | NEUTROPHIL (120 h, time 5 day): 5.5% | NUCLEATED RED BLOOD CELLS (120 h, time 5 day): 0 /100WBC | PLATELET COUNT (120 h, time 5 day): 1077.5 x10E3/uL | ALANINE AMINOTRANSFERASE (120 h, time 5 day): 57.83 u/L | ALKALINE PHOSPHATASE (120 h, time 5 day): 319.17 u/L | ASPARTATE AMINOTRANSFERASE (120 h, time 5 day): 83.33 u/L | BLOOD UREA NITROGEN (120 h, time 5 day): 13.67 mg/dL | CARBON DIOXIDE (120 h, time 5 day): 30.83 mmol/L | CHLORIDE (120 h, time 5 day): 98.33 MEQ/L | CHOLESTEROL (120 h, time 5 day): 64.83 mg/dL | CREATINE PHOSPHOKINASE (120 h, time 5 day): 263.67 u/L | CREATININE (120 h, time 5 day): 0.2 mg/dL | GLUCOSE (120 h, time 5 day): 182.83 mg/dL | LACTATE DEHYDROGENASE (120 h, time 5 day): 124 u/L | LIPASE (120 h, time 5 day): 10.5 u/L | PHOSPHORUS (120 h, time 5 day): 10 mg/dL | POTASSIUM (120 h, time 5 day): 5.78 MEQ/L | SODIUM (120 h, time 5 day): 142.48 MEQ/L | TOTAL BILIRUBIN (120 h, time 5 day): 0.2 mg/dL | TOTAL PROTEIN (120 h, time 5 day): 6 G/DL | URIC ACID (120 h, time 5 day): 0.7 mg/dL
